These results are taken from patent US20040248777A1, “Biomaterials for nerve reconstruction and process for producing the same” (priority 2001, published 2004).

The conditions of the experiment: laminin fragments in a collagen-filled silicon tube. An excerpt:
The present invention is directed to a biomaterial for nerve reconstruction, comprising chitin or chitosan with a surface modified by a laminin fragment having an amino acid sequence, such as YIGSR (tyrosine-isoleucine-glycine-serine-arginine) or IKVAV (isoleucine-lysine-valine-alanine-valine). This material may be used in the form of a nerve-bridging chitosan tube with a wall surface directly modified by the above laminin fragment, a nerve-bridging tube containing therein chitosan fibers with a surface modified by the above laminin fragment, or a nerve-bridging tube filled with chitosan gel modified by the above laminin fragment.

With “isoleucine-lysine-valine-alanine-valine [IKVAV]”, the “cell adhesion and neurite growth-promoting effects in vivo” value is given as “cannot achieve such effects”. Take “tyrosine-isoleucine-glycine-serine-arginine [YIGSR]”: the “cell adhesion and neurite growth-promoting effects in vivo” value was “cannot achieve such effects”.
